Results: patent US4950675A, “Pyridine di-mevalono-lactones as inhibitors of cholesterol biosynthesis” (Warner-Lambert Company, priority 1988, dated 1990)
Where a name gives a salt, the structure may show the parent alone.

How the values were obtained:
cholesterol synthesis = assay: AICS screen: plasma [14C]cholesterol after oral dosing of cholestyramine-fed rats (inhibition of cholesterol synthesis); assay type: in vivo; conditions: male Sprague-Dawley rats fed 5% cholestyramine; for inhibition at 1 mg/kg: Rattus norvegicus
Description: The ability of compound s of the present invention to inhibit the biosynthesis of cholesterol was also measured by a method (designated AICS screen) which utilizes the procedure described by A. W. Alberts et al, Proc. Natl. Acad. Sci., (1980), 77, pp 3957-3961.
In this method male Sprague-Dawley rats (200 g body weight) previously fed 5% cholestyramine for three days were randomly divided into groups (N=5/group) and given a single dose of vehicle (controls) or compound by an oral gavage at the indicated doses. One hour after drug dosing, all rats were injected intraperitoneally with sodium[1-^14 C]-acetate (18.75 μCi/rat in 0.2 ml saline). After 50 minutes, blood samples were taken, plasma obtained by centrifugation, and plasma [^14 C] cholesterol measured after saponification and extraction.

[1] = molecular target: sterol synthesis by rat liver homogenate (HMG-CoA reductase); assay: CSX screen ("CSI" in Table 2): inhibition of sterol synthesis from 14C-acetate in rat liver homogenate; assay type: biochemical; conditions: 50% inhibition of sterol synthesis over a one-hour period
Description: The ability of compound s of the present invention to inhibit the biosynthesis of cholesterol was measured by a method (designated CSX screen) which utilizes the procedure described by R. E. Dugan, et al, Archiv. Biochem. Biophys., (1972), 152, 21-27. In this method, the level of HMG-CoA enzyme activity in standard laboratory rats is increased by feeding the rats a chow diet containing 5% cholestyramine for four days, after which the rats are sacrificed.
The rat livers are homogenized, and the incorporation of […] into nonsaponifiable lipid by the rat liver homogenate is measured. The micromolar concentration of compound required for 50% inhibition of sterol synthesis over a one-hour period is measured, and expressed as an IC50 value.

Compound | inhibition at 1 mg/kg (cholesterol synthesis; Table 1, single oral gavage) [%] | AICS % Inhibition of Cholesterol Synthesis (cholesterol synthesis; Table 2, 1.0 mg/kg, single oral gavage) [%] | IC50 [1] [nM] | inhibition at 1 mg/kg (cholesterol synthesis; Table 2, single oral gavage) [%]
CC(C)c1nc(C(C)C)c(/C=C/C2CC(O)CC(=O)O2)c(-c2ccc(F)cc2)c1/C=C/C1CC(O)CC(=O)O1 (stereo not drawn) [6,6'-[[2,6-bis(1-methylethyl)-4-(4-fluorophenyl)-3,5-pyridinediyl]di-1,2-ethenediyl]bis [4α,6B(E)] tetrahydro-4-hydroxy-2H-pyran-2-one]] | -65 | – | – | –
CC(C)c1nc(C(C)C)c(C=CC(O)CC(O)CC(=O)[O-])c(-c2ccc(F)cc2)c1C=CC(O)CC(O)CC(=O)[O-].[Na+].[Na+] (stereo not drawn) [[R*,S*(E)]-7,7'-[2,6-bis(1-methylethyl)-2,4-(4-fluorophenyl)-3,5-pyridinediyl]bis [3,5-dihydroxy-6-heptenoio acid, disodium salt]] | – | -21 | 5.6 | –
CCc1nc(CC)c(/C=C/C2CC(O)CC(=O)O2)c(-c2ccc(F)cc2)c1/C=C/C1CC(O)CC(=O)O1 (stereo not drawn) [6,6'-[2,6-diethyl-4-(4-fluorophenyl)-3,5-pyridinediyl]di[2,1-ethenediyl]bis[4α,6β(E)][tetrahydro-4-hydroxy-2H -pyran-2-one]] | -3 | – | – | –
CCc1nc(CC)c(/C=C/C(O)CC(O)CC(=O)O)c(-c2ccc(F)cc2)c1/C=C/C(O)CC(O)CC(=O)O (stereo not drawn) [[R*,S*(E)]7,7'-[2,6-diethyl-4-(4-fluorophenyl)-3,5-pyridinediyl]bis[3,5-dihydroxy-6-heptenoic acid, disodium salt]] | – | – | 32 | -16
